Results from patent US20250136934A1, “PRODUCTION OF INDUCED MIDBRAIN DOPAMINERGIC PROGENITOR CELLS FROM PLURIPOTENT STEM CELLS” (NUWACELL BIOTECHNOLOGIES CO., LTD., priority 2023, published 2025).

Tested on: FOXA2+ imDAP cells
Test: FACS analysis of FOXA2 expression of imDAP cells derived from hiPSCs
Type: cell-based, human
Conditions: 4-step protocol, Day 16
Experimental: • 1. Individualize and collect cells by either Accutase or TrypLE treatment. • 2. Wash cells with 1 ml PBS and pellet cells at 250×g for […]. • 3. Remove supernatant, add ˜200 μl of 4% PFA, mix and fix for 10 min at RT. • 4. Pellet cells at 350×g for 5 min. • 5. Wash cells by 1 ml of FACS buffer and pellet cells at 350×g for 5 min. • 6. Remove supernatant, add 200 μl/tube of FACS buffer/0.1% Triton X, mix for 10 min at RT. • 7. Wash cells by 1 ml of FACS buffer and pellet cells at 350×g for 5 min. • 8. Remove supernatant, add 200 μl/tube of primary antibody diluted in FACS buffer, mix gently, and incubate for 30 min at RT. • 9. Wash cells by 1 ml of FACS buffer and pellet cells at 350×g for 5 min. • 10. Remove supernatant, and add 200 μl of secondary antibody diluted in FACS buffer, mix gently, and incubate for 30 min at RT. • 11. Wash cells by 1 ml of FACS buffer and pellet cells at 300×g for 5 min. • 12. Remove supernatant, add 200 μl of FACS buffer, and run samples on the flow cytometer.
On Day-1, EB formation (Stage 1) was carried out by dissociating hiPSCs (Nuwacell) to form a single-cell suspension and resuspending it in Epic medium (Nuwacell, #RP01001) containing 10 μM Blebbistatin (MCE, #HY-13441) in T25 flasks on a belly dancer and culturing the cells overnight. On Day 0, ventral midbrain floor plate differentiation (Stage 2) was initiated by changing the medium to a Stage 2-1 differentiation medium containing DMEM: F12/B27 (plus Vitamin A) (98:2, v/v) as basal medium and supplemented with 0.2 μM LDN193189, 10 μM SB431542, 1 μg/mL SHH C24II and 1.25 μM CHIR99021 and culturing the cells for 3 Days. From Day 3, the basal medium was changed to DMEM: F12/B27 (minus Vitamin A) (98:2, v/v), and CHIR concentration was boosted to 7.5 μM until Day 10 (Stage 2-2). SB431542 was withdrawn on Day 4, and SHH C24II was withdrawn on Day 8. From Day 10 (Stage 2-3), the medium was changed to a differentiation medium containing DMEM: F12/B27 (minus Vitamin A) (98:2, v/v) as basal medium and supplemented with 0.2 μM LDN193189 and 3 μM CHIR99021. During the cell culture, each of the differentiation media was replaced every day. On Day 16 (at the end of S2-3), EBs were dissociated for single cells and collected for analysis. The cells of each group were stained with FOXA2-PE antibody (BD, #561689), the percentage of FOXA2+ imDAP cells were analyzed by flow cytometry (FIG. 5). The above experiment was repeated for three times and the derived imDAP cells were named as Lot1, Lot2 and Lot3, respectively.
On Day-1, EB formation (Stage 1) was carried out by dissociating hiPSCs (Nuwacell) to form a single-cell suspension and resuspending it in Epic medium (Nuwacell, #RP01001) containing 10 μM Blebbistatin (MCE, #HY-13441) in T25 flasks on a belly dancer and culturing the cells overnight. On Day 0, ventral midbrain floor plate differentiation (Stage 2) was initiated by changing the medium to a Stage 2-1 differentiation medium containing DMEM: F12/B27 (plus Vitamin A) (98:2, v/v) as basal medium and supplemented with 0.2 μM LDN193189, 20 μM SB431542, 1.2 μM CHIR99021, and 1 μg/mL SHH C24II or the combination of SHH agonists including 500 ng/mL SHH C24II, 2 μM Purmorphamine and 10 nM SAG and culturing the cells for 3 days. From Day 3, the basal medium was changed to DMEM: F12/B27 (minus Vitamin A) (98:2, v/v). Cells were exposed to Boost-CHIR concentration of 7.5 μM starting from Day 4 to Day 6 (Stage 2-2), followed by a low CHIR concentration of 1.2 μM (Stage 2-3) until Day 10. […]

Cc1cnc(-c2cnc(NCCNc3ccc(C#N)cn3)nc2-c2ccc(Cl)cc2Cl)[nH]1 [CHIR, CHIR99021]
percentage of cells positive for FOXA2 (low CHIR concentration 1.2 μM in Stage 2-3 (Day 8 to Day 10)): 91.02%
percentage of cells positive for FOXA2 (low CHIR concentration 1.4 μM in Stage 2-3 (Day 8 to Day 10)): 81.89%
percentage of cells positive for FOXA2 (low CHIR concentration 1.6 μM in Stage 2-3 (Day 8 to Day 10)): 85.96%
